System: Trichostrongylus colubriformis and Haemonchus contortus
Experiment: In-vivo test on Trichostrongylus colubriformis and Haemonchus contortus on Mongolian gerbils using peroral application
Design: species or system Mongolian gerbils (Meriones unguiculatus)
Details: Mongolian gerbils infected with T. colubriformis and H. contortus, dose of 16 mg/kg, worm count 3 days after treatment
From the text: 1. In-vivo Test on Trichostrongylus colubriformis and Haemonchus contortus on Mongolian Gerbils (Meriones unguiculatus) using Peroral Application Six to eight week old Mongolian gerbils are infected through a stomach tube with ca. 2000 third instar larvae each of T. colubriformis and H. contortus. […] On day 9 (3 days after treatment), when most of the H. contortus that are still present are late 4th instar larvae and most of the T. colubriformis are immature adults, the gerbils are killed in order to count the worms. The efficacy is calculated as the % reduction of the number of worms in each gerbil, compared with the geometric average of number of worms from 6 infected and untreated gerbils.

CC(C#N)(COc1cc(C#N)ccc1Oc1ccc(Cl)cc1Cl)NC(=O)c1ccc(OC(F)(F)F)cc1 (stereo not shown) [Compound 1.47, N-[1-cyano-1-methyl-2-(5-cyano-2-{2,4-dichlorophenoxy}-phenoxy)-ethyl]-4-trifluoromethoxybenzamide]
elimination of the nematode infestation: complete elimination
